Experimental data as given in patent US9518038B2, “Condensation product of theanine derivative and carboxylic acid coumarin derivative, its intermediate, preparation method and use thereof” (SHANDONG YINGDONG YINGHAO BIOTECHNOLOGY, INC., priority 2012, dated 2016).

Tests used:
[1] = test system: human breast cancer cells MDA-MB231 xenograft; assay: In-vivo growth of MDA-MB231 xenografts in nude mice; set-up: species or system BALB/c nude mice; conditions: Mus musculus, MDA-MB-231, ip, MB-231 xenograft, vs DMSO solvent control, read-out: Curative effect (inhibition rate %) of tumor weight; for inhibition in vivo at 60 mg/kg: 60 mg/kg intraperitoneal once a day; for inhibition in vivo at 90 mg/kg: 90 mg/kg intraperitoneal once a day
Protocol: RPMI1640 and DMEM culture solutions: Hyclone Company; inactivated fetal bovine serum: Hyclone Company, preserved at −20° C.; trypsin: Amersco Company; and 0.4% trypan blue: Sigma Company;
(3) Observation of growth of tumors in nude mice: the activities (including food intake, traits of urine and stool, mental state and the like) of the nude mice and the tumor growth time and growth situation of the transplanted tumors were observed every day, the body weight and the size of the tumors were measured once every 2-3 days. The long diameter a and the short diameter b (mm) of each tumor were measured by a vernier caliper to calculate the volume, wherein the volume V=π1/2·ab^2 (mm^3);
(4) sacrifice of animals: the mice were anesthetized and photoed after treatment experiments; the nude mice were sacrificed by breaking neck, the tumor tissues were stripped under sterile conditions and the weight of the tumors was weighed; and the effects of the drugs on pathology and toxicity of the various organs and tissues were detected.

HDAC4 = HDAC4 enzyme activity in nuclear extracts of human tumor xenografts of treated mice; conditions: second value of the pair HDAC3 and HDAC4, SAHA 25 mg/kg
Protocol: For the detection of the effect of the drugs on enzyme activity of EZH2 and HDAC of in-vivo tumors, the tumors were separately excised after 6 h of medication, total proteins and nucleoproteins were extracted separately to detect and analyze the activity of the enzyme.
(2) 50 μl of diluted sample solution was added into each reaction well, the plate was sealed with a plate-sealing film and reacted at room temperature for 30 min;
(3) the plate-sealing film was carefully peeled off, the liquid was removed, dried, 150 μl of washing liquid was added into each well, stood for 30 s, then the liquid was removed, repeated twice, and dried;
(4) 2 μl of HDAC enzyme or tumor tissue nuclear extracts was respectively uniformly mixed with 28 μl of diluted sample solution, added into the wells, the plate was sealed with the plate-sealing film and reacted at 37° C. for 60 min;
(5) the plate was washed for three times, wherein the operation was the same as that in (3); and a diluted antibody capture working solution was added into each reaction well according to 50 μl/well and reacted on a shaking bed at room temperature for 60 min;
(6) the plate was washed for four times, wherein the operation was the same as that in (3);
(7) a diluted antibody detection working solution was added into each reaction well according to 50 μl/well and reacted at room temperature for 30 min;
(8) the plate was washed for five times, wherein the operation was the same as that in (3);
a color developing agent was added according to 100 μl/well, and performed dark development for 2-10 min;
(9) 50 μl of stop solution was added into each well for stopping the reaction when the color in the well with a standard product turned blue with medium intensity, the color immediately turned yellow from blue after the addition;
(10) the light absorbance (OD value) of each well was measured in sequence at the wavelength of 450 nm; wherein the measurement should be performed within 15 min after addition of the stop solution; and

[2] = test system: Caski human cervical cancer cells; assay: MTT growth inhibition, Caski cells; type: cell-based; conditions: Ca-Ski, 72 h after treatment, read-out: Drug concentration (IC50) at which 50% cancer cells survived
EGFR = assay: Western Blotting, EGFR level; type: cell-based; conditions: human liver cancer cells, Lewis lung cancer cells and other cancer cell lines and tumor tissues, read-out: Effective concentration (IC50) for inhibition of EGFR
Description: (§1) Antibodies: primary antibodies of VEGFR, EGFR, c-Met, K-Ras, H-Ras, Akt, NF-κB, Cyclin D1, ER-alpha, Dvl-1, Dvl-2, Dvl-3, MMP-9, MMP2, β-catenin, Bcl-2, Bax, p53, p21, E-cadherin and Caspase3 protein, purchased from American Cell Signaling Technology Company and Santa Cruz Technology Company; and H3 acetylation, H4 acetylation and HDAC (HDAC3, HDAC4 and the like) Antibody Sample Kits, purchased from Cell Signaling Technology Company of the U.S.
(§2) (3) polyacrylamide gel electrophoresis (SDS-PAGE): an equal amount of protein lysate sample was used to separate protein, film transfer, and blocking, treated with appropriate primary antibodies and secondary antibodies in sequence, and the film was washed, then the color was developed with ECL kit, and a blot protein band was detected by exposure of an X-ray film; and a Gel-Pro Analyzer was used for quantitative analysis of gray degree, optical density value of the control group and the drug treatment group in various concentration were respectively compared with that of internal reference, the obtained ratios were respectively compared with the control group, and the protein expression level was semi-quantified.

Cyclin D1 = assay: Western Blotting, Cyclin D1 level; type: cell-based; conditions: human liver cancer cells, Lewis lung cancer cells and other cancer cell lines and tumor tissues, read-out: Effective concentration (IC50) for inhibition of Cyclin D1
Description: as §1, §2

EZH2 = biological target: T1, EZH2 (Homo sapiens, UniProt Q15910); assay: EZH2 enzyme activity in protein extracts of human tumor xenografts of treated mice (EZH2 Assay Kit); type: in vivo; conditions: tumors excised 6 h after medication, SAHA 25 mg/kg
T1 construct: the EZH2 enzyme was replaced with tumor protein extracts in each group; from tissue; host or cells: human tumour xenografts excised from treated nude mice
T1 sequence (Q15910 whole entry): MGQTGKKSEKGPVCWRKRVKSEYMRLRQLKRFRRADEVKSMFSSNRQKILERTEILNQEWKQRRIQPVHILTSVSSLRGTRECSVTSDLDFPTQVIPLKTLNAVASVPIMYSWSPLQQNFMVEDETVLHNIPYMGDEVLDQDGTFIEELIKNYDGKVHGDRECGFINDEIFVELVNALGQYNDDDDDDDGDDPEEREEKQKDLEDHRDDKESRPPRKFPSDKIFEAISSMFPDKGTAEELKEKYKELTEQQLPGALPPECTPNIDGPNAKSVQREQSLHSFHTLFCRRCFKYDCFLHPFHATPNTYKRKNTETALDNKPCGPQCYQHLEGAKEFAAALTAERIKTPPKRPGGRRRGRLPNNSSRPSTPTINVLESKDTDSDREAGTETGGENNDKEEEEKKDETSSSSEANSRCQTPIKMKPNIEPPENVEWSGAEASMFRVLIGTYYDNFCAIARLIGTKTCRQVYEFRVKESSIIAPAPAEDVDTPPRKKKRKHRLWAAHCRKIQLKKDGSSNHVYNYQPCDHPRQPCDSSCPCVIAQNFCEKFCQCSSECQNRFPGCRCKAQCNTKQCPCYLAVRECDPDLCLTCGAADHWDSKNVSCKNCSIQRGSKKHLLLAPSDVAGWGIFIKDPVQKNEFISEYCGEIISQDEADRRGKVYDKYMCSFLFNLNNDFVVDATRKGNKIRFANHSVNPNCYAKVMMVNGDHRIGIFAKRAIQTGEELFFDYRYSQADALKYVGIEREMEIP
T1 sequence (O75530 whole entry partner): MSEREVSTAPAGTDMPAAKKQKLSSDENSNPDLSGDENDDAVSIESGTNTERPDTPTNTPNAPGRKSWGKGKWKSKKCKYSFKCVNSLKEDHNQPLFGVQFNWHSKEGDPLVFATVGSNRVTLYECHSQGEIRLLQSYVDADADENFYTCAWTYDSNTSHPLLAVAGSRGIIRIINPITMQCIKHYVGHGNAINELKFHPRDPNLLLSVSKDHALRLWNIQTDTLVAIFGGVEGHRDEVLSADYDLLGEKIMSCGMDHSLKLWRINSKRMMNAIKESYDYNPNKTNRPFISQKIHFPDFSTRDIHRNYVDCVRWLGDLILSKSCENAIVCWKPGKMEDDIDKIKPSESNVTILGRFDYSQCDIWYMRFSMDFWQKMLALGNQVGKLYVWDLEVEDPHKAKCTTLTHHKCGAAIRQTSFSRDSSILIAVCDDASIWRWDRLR
T1 sequence (Q15022 whole entry partner): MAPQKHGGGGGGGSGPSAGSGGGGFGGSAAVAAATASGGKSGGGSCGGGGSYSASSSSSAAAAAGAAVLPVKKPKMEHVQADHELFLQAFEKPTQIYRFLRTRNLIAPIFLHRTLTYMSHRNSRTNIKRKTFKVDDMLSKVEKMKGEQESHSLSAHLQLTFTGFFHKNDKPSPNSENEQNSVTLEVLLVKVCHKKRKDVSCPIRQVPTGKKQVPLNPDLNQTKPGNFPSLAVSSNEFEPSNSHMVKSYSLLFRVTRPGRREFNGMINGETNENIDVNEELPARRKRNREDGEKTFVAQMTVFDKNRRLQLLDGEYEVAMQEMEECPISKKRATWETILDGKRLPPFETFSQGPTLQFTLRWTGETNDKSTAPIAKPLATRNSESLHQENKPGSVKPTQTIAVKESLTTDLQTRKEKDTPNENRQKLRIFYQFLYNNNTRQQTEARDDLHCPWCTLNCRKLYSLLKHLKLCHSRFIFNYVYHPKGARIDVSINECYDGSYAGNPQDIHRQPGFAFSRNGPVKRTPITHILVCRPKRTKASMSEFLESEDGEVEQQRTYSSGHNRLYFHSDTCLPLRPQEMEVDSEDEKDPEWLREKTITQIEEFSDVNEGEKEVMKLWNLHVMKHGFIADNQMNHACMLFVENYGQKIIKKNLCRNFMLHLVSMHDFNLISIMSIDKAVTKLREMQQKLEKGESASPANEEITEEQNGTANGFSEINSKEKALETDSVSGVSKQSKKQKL

[3] = test system: human gastric cancer cells BGC-823; assay: MTT growth inhibition, BGC-823 cells; type: cell-based; conditions: 72 h after treatment, read-out: Drug concentration (IC50) at which 50% cancer cells survived
Description: Cell lines and cell culture: human lung cancer cells A549 and H460, human breast cancer cells MCF-7 and MDA-MB-231, human gastric cancer cells BGC-823, human prostate cancer cells PC-3, human chronic leukemia cells K562, human lymphoma cells U937, human liver cancer cells SMMC7721 and HepG2, human colon cancer cells HT29, human pancreatic cancer cells PANC-1 and BxPC3, human cervical cancer Hela cell lines, human brain tumor cells Daoy, human neuroma cells D54 and human oral epidermoid cancer cells KBV200 line with strong drug resistance, mouse melanoma cells B16, and highly metastatic Lewis lung cancer cell lines were purchased from American Type Culture Collection of the U.S. These cells were cultured with DMEM and RPMI-1640 culture solutions separately.
The procedure was as follows:
(1) 0.25% trypsin was used to digest cancer cells in a logarithmic growth phase to prepare a single-cell suspension, the concentration of cells was adjusted to 5×10^4/mL, and the adjusted suspension was inoculated into a 96-well culture plate with 100 μl per well;
(2) The culture plate was transferred into a 37° C. incubator with a saturated humidity and 5% of CO2 and cultured for 24 h; the compounds and the intermediates thereof obtained in embodiments 1-7 and the compound as represented by formula (IIIa) or the positive control anti-cancer drug with the concentration of 1-1000 μM/L were added to enable the final concentration to be 0.1-1500 μM/L. Control wells (only added with 200 μl of cell suspension) and drug-free blank control wells (containing the solvent of 0.01% DMSO) were set, each group included 8 wells, and the plate was placed into the 37° C. incubator with saturated humidity and 5% of CO2 for culturing;
(3) The 96-well plate was taken out at 48 h and 72 h after dosing, the original culture medium was carefully removed by suction, 100 μl of serum-free DMEM culture medium and 10 μl of MTT (5 mg/mL) solution were added in each well. The plate was continuously cultured for another 4 h and then the culture was terminated;
(4) The supernatant in the wells was carefully removed by suction, each well was added with 150 μl of DMSO and shaked at room temperature for 10-15 min to fully dissolve crystals.
(5) Colorimetric analysis: the wavelength was selected as 570 nm, the light absorbance (A value) of each well was determined on the microplate reader and the results were recorded; the experiment was repeated for three times;
(6) the experimental results were calculated according to the following formula: relative survival rate=(A value of each experimental group/A value of cell control group)×100%
Calculation of median-effect concentration (IC50, namely the drug concentration at which the inhibition rate is 50%, also known as half inhibitory concentration):
IC50 of the detected component was calculated by using a regression equation.

## CCNC(=O)CCC(NC(=O)c1cc2cc(F)ccc2oc1=O)C(=O)OCC (stereo in doubt) [Compound Ie, (R)-2-(6-F-2-oxo-2H-benzopyran-3-carboxamido)-5-ethylamino-5-oxo-pentanoic acid ethyl ester]
[1]
  inhibition in vivo at 60 mg/kg: 50.9%
  inhibition in vivo at 90 mg/kg: 60.9%
HDAC4; A549 tumor grown in vivo
  decrease of HDAC4 enzyme activity/inhibition rate: 72%*(A549)-
HDAC4; MCF7 tumor grown in vivo
  decrease of HDAC4 enzyme activity/inhibition rate: 67%*(MCF7)
HDAC4; MDA-MB231 tumor grown in vivo
  decrease of HDAC4 enzyme activity/inhibition rate: 62%*(MDA-MB231)
HDAC4; SMMC7721 tumor grown in vivo
  decrease of HDAC4 enzyme activity/inhibition rate: 65%*(SMMC7721);
[2]
  IC50: 230 µM
EGFR
  IC50: < 110 µM
Cyclin D1
  IC50: < 160 µM
EZH2; A549 tumor grown in vivo
  decrease of EZH2 enzyme activity/inhibition rate: 58%*(A549)-
EZH2; MCF7 tumor grown in vivo
  decrease of EZH2 enzyme activity/inhibition rate: 62%*(MCF7)
EZH2; MDA-MB231 tumor grown in vivo
  decrease of EZH2 enzyme activity/inhibition rate: 59%*(MDA-MB231)
EZH2; SMMC7721 tumor grown in vivo
  decrease of EZH2 enzyme activity/inhibition rate: 56%*(SMMC7721);
[3]
  IC50: 143 µM

## CCNC(=O)CCC(NC(=O)c1cc2cc([N+](=O)[O-])ccc2oc1=O)C(=O)OCC (stereo in doubt) [Compound If, (R)-2-(6-nitro-2-oxo-2H-benzopyran-3-carboxamido)-5-ethylamino-5-oxo-pentanoic acid ethyl ester]
[1]
  inhibition in vivo at 60 mg/kg: 52.6%
  inhibition in vivo at 90 mg/kg: 62.3%
HDAC4; A549 tumor grown in vivo
  decrease of HDAC4 enzyme activity/inhibition rate: 75%*(A549)-
HDAC4; MCF7 tumor grown in vivo
  decrease of HDAC4 enzyme activity/inhibition rate: 69%*(MCF7)
HDAC4; MDA-MB231 tumor grown in vivo
  decrease of HDAC4 enzyme activity/inhibition rate: 67%*(MDA-MB231)
HDAC4; SMMC7721 tumor grown in vivo
  decrease of HDAC4 enzyme activity/inhibition rate: 68%*(SMMC7721);
[2]
  IC50: 120 µM
EGFR
  IC50: < 100 µM
Cyclin D1
  IC50: < 90 µM
EZH2; A549 tumor grown in vivo
  decrease of EZH2 enzyme activity/inhibition rate: 65%*(A549)-
EZH2; MCF7 tumor grown in vivo
  decrease of EZH2 enzyme activity/inhibition rate: 66%*(MCF7)
EZH2; MDA-MB231 tumor grown in vivo
  decrease of EZH2 enzyme activity/inhibition rate: 63%*(MDA-MB231)
EZH2; SMMC7721 tumor grown in vivo
  decrease of EZH2 enzyme activity/inhibition rate: 64%*(SMMC7721);
[3]
  IC50: 115 µM

## CCNC(=O)CC[C@H](N)C(=O)OC [Compound IIa, theanine methyl ester]
[1]
  inhibition in vivo at 60 mg/kg: 31.1%
  inhibition in vivo at 90 mg/kg: 36.1%
[2]
  IC50: 320 µM
[3]
  IC50: 310 µM

## CCNC(=O)CC[C@H](N)C(=O)OCC [Compound IIb, theanine ethyl ester]
[1]
  inhibition in vivo at 60 mg/kg: 44.5%
  inhibition in vivo at 90 mg/kg: 47.8%
[2]
  IC50: 300 µM
[3]
  IC50: 600 µM

## CCNC(=O)CCC(NC(=O)c1cc2ccccc2oc1=O)C(=O)OC (stereo not shown) [Compound Ia, methyl 5-ethylamino-5-oxo-2-(2-oxo-2H-benzopyran-3-carboxamido)pentanoate]
[1]
  inhibition in vivo at 60 mg/kg: 50.1%
  inhibition in vivo at 90 mg/kg: 60.1%
HDAC4; SMMC7721 tumor grown in vivo
  decrease of HDAC4 enzyme activity/inhibition rate: 58%*(SMMC7721)
[2]
  IC50: 210 µM
EGFR
  IC50: < 125 µM
Cyclin D1
  IC50: < 125 µM
EZH2; SMMC7721 tumor grown in vivo
  decrease of EZH2 enzyme activity/inhibition rate: 54%*(SMMC-7721)
[3]
  IC50: 123 µM

## CCNC(=O)CCC(NC(=O)c1cc2ccccc2oc1=O)C(=O)OCC (stereo not shown) [Compound Ib, ethyl 5-ethylamino-5-oxo-2-(2-oxo-2H-benzopyran-3-carboxamido)pentanoate]
[1]
  inhibition in vivo at 60 mg/kg: 59.1%
  inhibition in vivo at 90 mg/kg: 69.1%
HDAC4; A549 tumor grown in vivo
  decrease of HDAC4 enzyme activity/inhibition rate: 62%*(A549)-
HDAC4; SMMC7721 tumor grown in vivo
  decrease of HDAC4 enzyme activity/inhibition rate: 61%*(SMMC-7721)
[2]
  IC50: 116 µM
EGFR
  IC50: < 120 µM
Cyclin D1
  IC50: < 120 µM
EZH2; A549 tumor grown in vivo
  decrease of EZH2 enzyme activity/inhibition rate: 54%*(A549)-
EZH2; SMMC7721 tumor grown in vivo
  decrease of EZH2 enzyme activity/inhibition rate: 57%*(SMMC-7721)
[3]
  IC50: 127 µM

## CCNC(=O)CC[C@@H](NC(=O)c1cc2cc(Cl)ccc2oc1=O)C(=O)OCC [Compound Ic, (R)-2-(6-CI-2-oxo-2H-benzopyran-3-carboxamido)-5-ethylamino-5-oxo-pentanoic acid ethyl ester]
[1]
  inhibition in vivo at 60 mg/kg: 54.1%
  inhibition in vivo at 90 mg/kg: 65.5%
HDAC4; A549 tumor grown in vivo
  decrease of HDAC4 enzyme activity/inhibition rate: 73%*(A549)-
HDAC4; MCF7 tumor grown in vivo
  decrease of HDAC4 enzyme activity/inhibition rate: 63%*(MCF7)
HDAC4; MDA-MB231 tumor grown in vivo
  decrease of HDAC4 enzyme activity/inhibition rate: 65%*(MDA-MB231)
HDAC4; SMMC7721 tumor grown in vivo
  decrease of HDAC4 enzyme activity/inhibition rate: 67%*(SMMC-7721);
[2]
  IC50: 86 µM
EGFR
  IC50: < 100 µM
Cyclin D1
  IC50: < 100 µM
EZH2; A549 tumor grown in vivo
  decrease of EZH2 enzyme activity/inhibition rate: 61%*(A549)-
EZH2; MCF7 tumor grown in vivo
  decrease of EZH2 enzyme activity/inhibition rate: 56%*(MCF7)
EZH2; MDA-MB231 tumor grown in vivo
  decrease of EZH2 enzyme activity/inhibition rate: 58%*(MDA-MB231)
EZH2; SMMC7721 tumor grown in vivo
  decrease of EZH2 enzyme activity/inhibition rate: 59%*(SMMC7721);
[3]
  IC50: 66 µM

## CCNC(=O)CC[C@@H](NC(=O)c1cc2cc(Br)ccc2oc1=O)C(=O)OCC [Compound Id, (R)-2-(6-Br-2-oxo-2H-benzopyran-3-carboxamido)-5-ethylamino-5-oxo-pentanoic acid ethyl ester]
[1]
  inhibition in vivo at 60 mg/kg: 53.1%
  inhibition in vivo at 90 mg/kg: 66.7%
HDAC4; A549 tumor grown in vivo
  decrease of HDAC4 enzyme activity/inhibition rate: 73%*(A549)-
HDAC4; MCF7 tumor grown in vivo
  decrease of HDAC4 enzyme activity/inhibition rate: 63%*(MCF7)
HDAC4; MDA-MB231 tumor grown in vivo
  decrease of HDAC4 enzyme activity/inhibition rate: 65%*(MDA-MB231)
HDAC4; SMMC7721 tumor grown in vivo
  decrease of HDAC4 enzyme activity/inhibition rate: 67%*(SMMC7721);
[2]
  IC50: 101 µM
EGFR
  IC50: < 100 µM
Cyclin D1
  IC50: < 100 µM
EZH2; A549 tumor grown in vivo
  decrease of EZH2 enzyme activity/inhibition rate: 61%*(A549)-
EZH2; MCF7 tumor grown in vivo
  decrease of EZH2 enzyme activity/inhibition rate: 56%*(MCF7)
EZH2; MDA-MB231 tumor grown in vivo
  decrease of EZH2 enzyme activity/inhibition rate: 58%*(MDA-MB231)
EZH2; SMMC7721 tumor grown in vivo
  decrease of EZH2 enzyme activity/inhibition rate: 59%*(SMMC7721);
[3]
  IC50: 65 µM
